Results as given in ChEMBL document CHEMBL1201862, “PubChem BioAssay data set” (2004).
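A five-concentration, 48-hour dose response in 96-well plates underlies each endpoint, interpolated linearly between surrounding concentrations. Here, GI50 denotes the concentration required for 50% inhibition of growth.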 Activity calls are given as the source filed them. Cut-off read from the data, not from the text of the source: active = GI50 up to about 1.1 µM and inactive = higher.

Columns and labels:
Assay in all cases: growth of human tumour cells (NCI), 48 h
OVCAR-3 = test system: OVCAR-3
Hs-578T = test system: Hs-578T
HOP-62 = test system: HOP-62
HCC 2998 = test system: HCC 2998
UACC-257 = test system: UACC-257
MCF7 = test system: MCF7
SK-MEL-28 = test system: SK-MEL-28
MDA-MB-231 = test system: MDA-MB-231
SF-295 = test system: SF-295
M14 = test system: M14
NCI-H460 = test system: NCI-H460
HCT-15 = test system: HCT-15
UO-31 = test system: UO-31
MDA-MB-435 = test system: MDA-MB-435
KM12 = test system: KM12
HT-29 = test system: HT-29
RPMI-8226 = test system: RPMI-8226
SF-539 = test system: SF-539
SF-268 = test system: SF-268

COC1OC(Cn2cc([N+](=O)[O-])nc2C)C(O)C(O)C1O (stereo unspecified) was tested, and the GI50 (OVCAR-3) was > 100 µM (inactive), the GI50 (Hs-578T) was > 100 µM (inactive) and the GI50 (HOP-62) was > 100 µM (inactive). For the same compound, the GI50 (HCC 2998) was > 100 µM (inactive), the GI50 (UACC-257) was > 100 µM (inactive) and the GI50 (MCF7) was > 100 µM (inactive). The GI50 (SK-MEL-28) was > 100 µM (inactive), the GI50 (MDA-MB-231) was > 100 µM (inactive) and the GI50 (SF-295) was > 100 µM (inactive). The GI50 (M14) was > 100 µM (inactive), the GI50 (NCI-H460) was > 100 µM (inactive) and the GI50 (HCT-15) was > 100 µM. The GI50 (UO-31) was > 100 µM (inactive), the GI50 (MDA-MB-435) was > 100 µM (inactive) and the GI50 (KM12) was > 100 µM (inactive). The GI50 (HT-29) was > 100 µM (inactive) and the GI50 (RPMI-8226) was > 100 µM (inactive).
With Cc1ccc(/C=C2\CCCC(CN(C)C)C2=O)cc1 (stereo unspecified) the GI50 (OVCAR-3) was 1.76 µM (inactive), the GI50 (Hs-578T) was 3.21 µM (inactive) and the GI50 (HOP-62) was 20.4 µM (inactive). For the same compound, the GI50 (HCC 2998) was 14.2 µM (inactive), the GI50 (SF-539) was 2.84 µM (inactive) and the GI50 (UACC-257) was 1.88 µM (inactive). The GI50 (MCF7) was 0.525 µM (active), the GI50 (SK-MEL-28) was 1.95 µM (inactive) and the GI50 (MDA-MB-231) was 1.66 µM (inactive). The GI50 (SF-295) was 17.4 µM (inactive), the GI50 (M14) was 1.81 µM (inactive) and the GI50 (NCI-H460) was 3.48 µM (inactive). For the same compound, the GI50 (HCT-15) was 1.97 µM, the GI50 (UO-31) was 1.69 µM (inactive) and the GI50 (MDA-MB-435) was 1.85 µM (inactive). The GI50 (KM12) was 1.55 µM (inactive), the GI50 (HT-29) was 1.69 µM (inactive) and the GI50 (SF-268) was 2.06 µM (inactive).
With CC(C)(CN1CCCCC1)C(/C=C/c1ccccc1)=N\NC(=O)N/N=C(/C=C/c1ccccc1)C(C)(C)CN1CCCCC1 the GI50 (OVCAR-3) was 2.34 µM (inactive), the GI50 (Hs-578T) was 2.67 µM (inactive) and the GI50 (HOP-62) was 1.85 µM (inactive). For the same compound, the GI50 (HCC 2998) was 0.543 µM (active), the GI50 (UACC-257) was 1.71 µM (inactive) and the GI50 (MCF7) was 1.71 µM (inactive). For the same compound, the GI50 (SK-MEL-28) was 1.68 µM (inactive), the GI50 (MDA-MB-231) was 1.36 µM (inactive) and the GI50 (SF-295) was 1.69 µM (inactive). The GI50 (M14) was 1.71 µM (inactive), the GI50 (NCI-H460) was 1.38 µM (inactive) and the GI50 (HCT-15) was 1.37 µM. For the same compound, the GI50 (UO-31) was 1.13 µM (inactive), the GI50 (MDA-MB-435) was 1.51 µM (inactive) and the GI50 (KM12) was 2 µM (inactive). For the same compound, the GI50 (HT-29) was 1.07 µM (active), the GI50 (SF-268) was 3.24 µM (inactive) and the GI50 (RPMI-8226) was 1.27 µM (inactive).
With COc1ccc(N(C(=O)Nc2ccc(Cl)c(Cl)c2)c2ccccc2)cc1 the GI50 (OVCAR-3) was > 10 µM (inactive), the GI50 (Hs-578T) was > 10 µM (inactive) and the GI50 (HOP-62) was > 10 µM (inactive). The GI50 (HCC 2998) was > 10 µM (inactive), the GI50 (SF-539) was > 10 µM (inactive) and the GI50 (UACC-257) was > 10 µM (inactive). For the same compound, the GI50 (MCF7) was > 10 µM (inactive), the GI50 (SK-MEL-28) was > 10 µM (inactive) and the GI50 (MDA-MB-231) was > 10 µM (inactive). The GI50 (SF-295) was > 10 µM (inactive), the GI50 (M14) was > 10 µM (inactive) and the GI50 (NCI-H460) was > 10 µM (inactive). For the same compound, the GI50 (HCT-15) was > 10 µM, the GI50 (UO-31) was > 10 µM (inactive) and the GI50 (MDA-MB-435) was > 10 µM (inactive). For the same compound, the GI50 (KM12) was > 10 µM (inactive), the GI50 (HT-29) was > 10 µM (inactive) and the GI50 (SF-268) was > 10 µM (inactive).
CCN(CC)CCn1c2cc3c(cc2c(=O)c2cccnc21)OCCO3 was tested, and the GI50 (OVCAR-3) was > 10 µM (inactive), the GI50 (Hs-578T) was > 10 µM (inactive) and the GI50 (HOP-62) was > 10 µM (inactive). The GI50 (HCC 2998) was 6.4 µM (inactive), the GI50 (SF-539) was > 10 µM (inactive) and the GI50 (UACC-257) was > 10 µM (inactive). The GI50 (MCF7) was 7.82 µM (inactive), the GI50 (SK-MEL-28) was > 10 µM (inactive) and the GI50 (MDA-MB-231) was 9.51 µM (inactive). The GI50 (SF-295) was > 10 µM (inactive), the GI50 (M14) was > 10 µM (inactive) and the GI50 (HCT-15) was > 10 µM. For the same compound, the GI50 (MDA-MB-435) was > 10 µM (inactive), the GI50 (KM12) was > 10 µM (inactive) and the GI50 (HT-29) was > 10 µM (inactive). The GI50 (SF-268) was > 10 µM (inactive) and the GI50 (RPMI-8226) was > 10 µM (inactive).
In the case of COc1c(C)c(C/C=C(\C)CCCCO)c(OC)c2ccccc12, the GI50 (OVCAR-3) is reported as 62.4 µM (inactive), the GI50 (Hs-578T) is reported as 30.2 µM (inactive) and the GI50 (HCC 2998) is reported as 23.3 µM (inactive). The GI50 (SF-539) was 52.8 µM (inactive), the GI50 (UACC-257) was 33.8 µM (inactive) and the GI50 (MCF7) was 38.5 µM (inactive). For the same compound, the GI50 (MDA-MB-231) was 40.6 µM (inactive), the GI50 (SF-295) was 41.4 µM (inactive) and the GI50 (M14) was 37.2 µM (inactive). For the same compound, the GI50 (NCI-H460) was 20.6 µM (inactive), the GI50 (HCT-15) was 31.6 µM and the GI50 (UO-31) was 30.1 µM (inactive). For the same compound, the GI50 (MDA-MB-435) was 32.6 µM (inactive), the GI50 (KM12) was 23.9 µM (inactive) and the GI50 (HT-29) was 20.4 µM (inactive). The GI50 (SF-268) was 44 µM (inactive) and the GI50 (RPMI-8226) was > 100 µM (inactive).
In the case of CC1(CCCO)CCCCCC(C)(CCCO)C1=O (stereo unspecified), the GI50 (OVCAR-3) is reported as > 100 µM (inactive), the GI50 (Hs-578T) is reported as > 100 µM (inactive) and the GI50 (HOP-62) is reported as > 100 µM (inactive). For the same compound, the GI50 (HCC 2998) was > 100 µM (inactive), the GI50 (UACC-257) was > 100 µM (inactive) and the GI50 (MCF7) was 70.6 µM (inactive). The GI50 (SK-MEL-28) was > 100 µM (inactive), the GI50 (MDA-MB-231) was > 100 µM (inactive) and the GI50 (SF-295) was > 100 µM (inactive). The GI50 (M14) was > 100 µM (inactive), the GI50 (NCI-H460) was > 100 µM (inactive) and the GI50 (HCT-15) was > 100 µM. The GI50 (UO-31) was > 100 µM (inactive), the GI50 (MDA-MB-435) was > 100 µM (inactive) and the GI50 (KM12) was > 100 µM (inactive). For the same compound, the GI50 (HT-29) was > 100 µM (inactive), the GI50 (SF-268) was > 100 µM (inactive) and the GI50 (RPMI-8226) was > 100 µM (inactive).
COc1ccc(/[N+]([O-])=C/c2ccccc2OC(=S)S)cc1 was tested, and the GI50 (OVCAR-3) was 28.4 µM (inactive), the GI50 (Hs-578T) was 33.7 µM (inactive) and the GI50 (HCC 2998) was 44.5 µM (inactive). The GI50 (SF-539) was 22.6 µM (inactive), the GI50 (UACC-257) was 29 µM (inactive) and the GI50 (MCF7) was 33.6 µM (inactive). The GI50 (SK-MEL-28) was 72.8 µM (inactive), the GI50 (MDA-MB-231) was 56.2 µM (inactive) and the GI50 (SF-295) was 33.8 µM (inactive). For the same compound, the GI50 (M14) was 25.5 µM (inactive), the GI50 (NCI-H460) was 45.1 µM (inactive) and the GI50 (HCT-15) was 30.6 µM. The GI50 (UO-31) was 24.6 µM (inactive), the GI50 (MDA-MB-435) was 21.4 µM (inactive) and the GI50 (KM12) was 31 µM (inactive). The GI50 (HT-29) was 22.4 µM (inactive), the GI50 (SF-268) was 34.8 µM (inactive) and the GI50 (RPMI-8226) was 25.6 µM (inactive).
